Activity and IC50 data for one molecule are collected here from US6747061B2, “N-substituted dithiocarbamates for the treatment of biological disorders” (AtheroGenics, Inc., priority 2000, dated 2004).

Where two headings read alike, the source gives them in different places.

Test [1] has as its system SNU-C5 colorectal carcinoma cells. Kind of test: Anti-proliferative effect on SNU-C5 cells (CellTiter96). The test is classed as cell-based. Conditions: read-out: proliferation, percent of control; for activity at 1 µM: NDE 1 μM; for activity at 10 µM: NDE 10 μM; for activity at 100 µM: NDE 100 μM. How it is done:
(§1) All primary cells and cell lines were commercially available. The transformed cell lines were grown in Dulbecco's Modified Eagle Media supplemented with 2 mM L-glutamine, 50 I.U. penicillin, 50 μg/ml streptomycin, nonessential amino acids and 10% heat-inactivated fetal bovine serum. HASM, HAEC and NHBE cells were cultured exactly as described by the commercial provider (Clonetics, San Diego, Calif.). All cell lines were grown at 37° C. in 5% CO2, with the media being changed every 48 hours.
(§2) For the experimental assays, cells were plated in 96-well plates and grown until ˜35% confluency was achieved. For the transformed cell lines, cells were plated at low density and grown for 72 hours prior to being stimulated, whereas the non-transformed cells were plated at a higher density and grown for 24 hours prior to being stimulated.
(§3) Cells were treated with dithiocarbamate (0.1-100 μM)±5FU (0.01-10 μM) and retreated after 48 hours when media was changed. Cell growth was assessed using the CellTiter96® assay system from Promega (Madison, Wis.). Each experimental condition was performed in triplicate or quadruplicate, with the number of experiments for each cell line being three.
(§4) Statistical significance was assessed using an ANOVA with the appropriate post-hoc analysis as well as Students t-tests. *=p<0.05 when compared to control-treated (DMSO) cells. #=p<0.05 when compared to 5FU-treated cells.

In test [2] the test system is DLD-1 colorectal carcinoma cells. Kind of test: Anti-proliferative effect on DLD-1 cells (CellTiter96). The test is classed as cell-based. Conditions: Homo sapiens, read-out: proliferation, percent of control; for activity at 1 µM: NDE 1 μM; for activity at 10 µM: NDE 10 μM; for activity at 100 µM: NDE 100 μM. The method, then: as §1, §2, §3, §4
The test system of the next test is VCAM-1. The experiment in a line: VCAM-1 assay: enzyme immunoassay of TNF-α induced VCAM-1 expression in endothelial cells. The test is classed as cell-based, Human. Conditions: Homo sapiens, Endothelial cell; HAEC, TNF-α 1 ng/ml, approximately 16 hours; read-out: VCAM-1 IC50. How it is done: The VCAM-1 assay is an enzyme immunoassay to detect tumor necrosis factor alpha (TNF-α) induced Vascular Adhesion Molecule (VCAM-1) expression in endothelial cells.
Human endothelial cells (HAEC) were purchased from Clonetics and maintained in EGM media (Clonetics) supplemented with 5% fetal bovine serum (FBS). In a typical experiment, cells were seeded in 96-well plates. The next day cells were stimulated with TNF-α (1 ng/ml) purchased from Boehringer Mannheim in the presence or absence of compounds dissolved in dimethylsulphoxide (DMSO). To establish a dose curve for each compound, four concentrations in 2 fold increments were used. Cells were exposed to TNF-α and compounds for approximately 16 hours. The next day, cells were examined under microscope to score for visual signs of toxicity.
Media was discarded and the cells were washed once with Hanks buffered saline solution (HBSS)/phosphate buffered solution (PBS) 91:1). Primary mouse monoclonal antibody against VCAM-1 purchased from Southern Biotechnology Associates (0.25 μg/ml in HBSS/PBS+5% FBS) was added and incubated at 37° C. for 30 minutes. Cells were washed with HBSS/PBS three times, and secondary antibody horse radish peroxidase (HRP)-conjugated goat anti-mouse IgG purchased from Southern Biotechnology Associates (1:500 in HBSS/PBS+5% FBS) was added and incubated at 37° C. for 30 minutes. Cells were washed with HBSS/PBS four times and peroxidase substrate 3.3′,5,5′-tetramethyl-benzidine (TMB) was added and incubated in the dark at room temperature until there was adequate blue color development. The length of incubation time was typically 5-15 minutes. 2 N sulfuric acid was added to stop the color development and the data was collected by reading the absorbance at O.D. 450 nm. The result was expressed as the percentage of control sample (cells stimulated by TNF without any compound).

A further test relates to eotaxin. The experiment in a line: Eotaxin assay: enzyme immunoassay of TNF-α and IL-4 induced eotaxin expression in BEAS-2B cells. The test is classed as cell-based. To be noted: Homo sapiens, TNF 10 ng/ml + IL-4, approximately 16 hours. How it is done: The eotaxin assay is an enzyme immunoassay to measure tumor necrosis factor alpha (TNF-α) and interleukin-4 (IL-4) induced expression of eotaxin in a human epithelial cell line (BEAS-2B).
BEAS-2B cells purchased from ATCC and maintained in DMEM/F12 plus 10% serum and penicillin plus streptomycin. In a typical experiment, cells were seeded in 96-well plates. The next day cells were stimulated with TNF (10 ng/ml)+IL-4 ([…]) in the presence or absence of compounds dissolved in dimethylsulphoxide (DMSO) in DMEM/F12 plus 1% rabbit serum albumin (RSA). To establish a dose curve for each compound, three concentrations in 2 fold increments were used. Cells were exposed to cytokines and compounds for approximately 16 hours. The next day, the cells were examined under microscope to score for visual signs of toxicity. The culture media was used to measure eotaxin level.
100 μl of anti-human eotaxin monoclonal antibody (3 μg/ml) purchased from R & D Systems was used to coat 96-well plates overnight at room temperature. […] 2N sulphuric acid stopped the color development and data were collected by a microplate reader set at O.D. 450 nm. The results were expressed as the percentage of control sample (cells stimulated by TNF without any compound).

As a reminder, the IC50 is the concentration that gives 50% inhibition. Take `COC(=O)CCCSC(=S)NCC1CCCO1` (centres unmarked) [NDE, 4-(tetrahydrofuran-2-ylmethylthiocarbamoylsulfanyl)-butyric acid methyl ester]: the activity at 1 µM was found to be 138 ± 24.2% in test [1] (24 HOURS); 105 ± 7.42% in test [1] (48 HOURS); 127 ± 16.4% in test [1] (72 HOURS); 116 ± 3.72% in test [2] (24 HOURS); 107 ± 7.55% in test [2] (48 HOURS); 133 ± 10.3% in test [2] (72 HOURS). Also, the activity at 10 µM in test [1] (24 HOURS) was 93.4 ± 15.9%; in test [1] (48 HOURS), 70.5 ± 8.42%; in test [1] (72 HOURS) it was 59.2 ± 4.1%; in test [2] (24 HOURS), 97.1 ± 1.79%; in test [2] (48 HOURS), 104 ± 13.3%; in test [2] (72 HOURS), 142 ± 14.9%. The activity at 100 µM in test [1] (24 HOURS) came out at 60 ± 10.8%; in test [1] (48 HOURS) it was 26.3 ± 8.64%; in test [1] (72 HOURS), 13.6 ± 1.31%; in test [2] (24 HOURS) it was 53.8 ± 5.28%; in test [2] (48 HOURS), 39.8 ± 6.27%; in test [2] (72 HOURS) it was 0.27 ± 0.27%. Also, the IC50 in the test with VCAM-1 stood at 1.5 µM; in the test with eotaxin, 6 µM.
